Results as given in patent US20260297129A1, “PEPTIDES AS SELECTIVE IL-23 RECEPTOR INHIBITORS” (SANOFI, priority 2023, published 2026).
Converted amounts (≈) assume the structure as drawn. Where two headings read alike, the source gives them in different places. Numbered stars: 1 amine (or outer) side, 2 acyl side, 3 side chain; on linkers, the order of the positions; unused ones are H or OH. Bridge positions count the residues as written; N and C are the ends. Square brackets hold non-standard residues; d marks the D form. Peptide text beside a SMILES is read from it. * marks the point of attachment. Lys(Me,(CH2)4NMe(CH2)5CO) = CN(CCCCCC(=O)[*:3])CCCCN(C)CCCC[C@H](N[*:1])C(=O)[*:2]; Lys(Me,(CH2)4NMe(CH2)4CO) = CN(CCCCC(=O)[*:3])CCCCN(C)CCCC[C@H](N[*:1])C(=O)[*:2]; Trp(7-Me) = Cc1cccc2c(C[C@H](N)C(=O)O)c[nH]c12; Trp(1-Me) = Cn1cc(C[C@H](N)C(=O)O)c2ccccc21; NH(2-(3-pyridyl)ethyl) = c1cncc(CCN*)c1; αMeLys(Me2) = CN(C)CCCC[C@](C)(N)C(=O)O; 2Nal = N[C@@H](Cc1ccc2ccccc2c1)C(=O)O; 3Pal = N[C@@H](Cc1cccnc1)C(=O)O; Thp = NC1(C(=O)O)CCOCC1; Me2NCH2CH2 = CN(C)CC*; Aib = CC(C)(N)C(=O)O; Sar = CNCC(=O)O

How the values were obtained:
[1] = tested on: IL-23 induced STAT3 signaling (IL-23 receptor) in HEK-Blue IL-23 cells; experiment: Inhibition of IL-23 induced STAT3 signaling in HEK-Blue IL-23 cells, SEAP reporter (Table 9); type: cell-based; conditions: human IL23 0.25 ng/ml, overnight, read-out: Inhibition of IL-23 induced pSTAT3 (IC50 nM)
From the text: HEK-Blue™ IL-23 cells (INVIVOGEN) are designed for the detection of bioactive human (hIL-23) and murine IL-23 (mIL-23) by monitoring the activation of the STAT3 pathway. Binding of IL-23 to its receptor on the surface of HEK-Blue™ IL-23 cells triggers a signaling cascade leading to the activation of STAT3 and the subsequent production of secreted embryonic alkaline phosphatase (SEAP). This can be readily assessed using QUANTI-Blue™ Solution, a SEAP detection reagent.
HEK-Blue™ IL-23 cells were cultured as described by INVIVOGEN.
On the first day of assay 10 μL of the HEK-BLUE IL23 cell suspension (final concentration: 10,000 cells/well) and 10 μl of serially diluted peptides solutions were dispensed into a 384-well assay plate. After pre-incubation of the reaction mixtures at 37° C./5% CO2/95% humidity for 60 minutes, 10 μl of the humanIL23 cytokine (final concentration: 0.25 ng/ml) was added to each well for the STAT3 signaling activation. The plate was incubated overnight at 37° C./5% CO2/95% humidity.
On the second day 20 μl per well of QUANTI-BLUE detection solution (prepared according to the manufacture instruction) was dispensed into a new 384-well plate and followed by the transfer of 5 μl supernatant of the overnight incubated cell/sample mixtures. After incubation of 45 min at room temperature signals were measured with PHERASTAR (BMG) at OD 620-655 nm.
Dose response data were fitted with XLfit.

[2] = Solubility of peptide compounds in buffer formulations (Table 5); type: physicochemical; conditions: target 1 mg/ml
Experimental: Prior to the solubility measurement of a peptide batch, its purity was determined through UHPLC/MS method A.
For solubility testing the target concentration was 1 mg pure compound/ml. Therefore, solutions from solid samples were prepared in a buffer system at a concentration of 1 mg/mL compound. The solid samples were obtained by drying down aliquots of a freshly prepared dimethyl sulfoxide stock solution using a THERMO SPEEDVAC vacuum centrifuge. The dry down time was 3 hours.
The following buffer systems were applied: • Solubility buffer system A) 50 mM HCl pH 1.2 • Solubility buffer system B) 50 mM phosphate buffer pH 6.5 • Solubility buffer system C) 50 mM phosphate buffer pH 7.4 • UHPLC-UV was performed using analytical method A after 2 hours of gentle agitation from the filtered (0.45 μm filter plates) solutions, which were obtained by 10 mins of centrifugation forced filtration at 1500 RCF (relative centrifugal acceleration).
The solubility was determined by the comparison of the UV peak area of 2 μL-injections of a buffered sample diluted 1:10 with a standard curve of a dimethyl sulfoxide reference sample of known concentration. The different extinction coefficients were taken into account for the calculation.

[3] = Buffer pH 1.1 (head; method: 50 mM HCl pH 1.2), 2 h agitation, read-out: Solubility, Buffer pH 1.1
[4] = aqueous buffer, 50 mM phosphate buffer pH 6.5, 2 h agitation, read-out: Solubility, Buffer pH 6.5
[5] = aqueous buffer, 50 mM phosphate buffer pH 7.4, 2 h agitation, read-out: Solubility, Buffer pH 7.4

SMILES | IC50 [1] | solubility at 2 h [2, 3] | solubility at 2 h [2, 4] | solubility at 2 h [2, 5]
CN(C)CCCC[C@]1(C)NC(=O)[C@H](Cc2ccc3ccccc3c2)NC(=O)[C@H](Cc2ccc(OCCN(C)C)cc2)NC(=O)C2(CCOCC2)NC(=O)[C@H](CCC(N)=O)NC(=O)[C@H](Cc2cn(C)c3ccccc23)NC(=O)CCCCN(C)CCCCN(C)CCCC[C@@H](C(=O)N[C@@H](CO)C(=O)N[C@@H](Cc2cccnc2)C(=O)N(C)CC(N)=O)NC1=O [compound 45] ([Trp(1-Me)]Q[Thp]Y(Me2NCH2CH2)[2Nal][αMeLys(Me2)][Lys(Me,(CH2)4NMe(CH2)4CO)]S[3Pal][Sar]-NH2; lactam N-7) | 7.83 nM | ≥ 1060 µg/mL | ≥ 1030 µg/mL | ≥ 1030 µg/mL
CC(=O)NCCCC[C@@H]1NC(=O)[C@H](Cc2c[nH]c3c(C)cccc23)NC(=O)CCCCN(C)CCCCN(C)CCCC[C@@H](C(=O)N[C@@H](CO)C(=O)N[C@@H](Cc2cccnc2)C(=O)N(C)CC(N)=O)NC(=O)[C@](C)(CCCCN(C)C)NC(=O)[C@H](Cc2ccc3ccccc3c2)NC(=O)[C@H](Cc2ccc(OCCN(C)C)cc2)NC(=O)C2(CCOCC2)NC1=O [compound 44] ([Trp(7-Me)]K(Ac)[Thp]Y(Me2NCH2CH2)[2Nal][αMeLys(Me2)][Lys(Me,(CH2)4NMe(CH2)4CO)]S[3Pal][Sar]-NH2; lactam N-7) | 1.19 nM | ≥ 1360 µg/mL | ≥ 1130 µg/mL | ≥ 1120 µg/mL
CC(=O)NCCCC[C@@H]1NC(=O)[C@H](Cc2cn(C)c3ccccc23)NC(=O)CCCCCN(C)CCCCN(C)CCCC[C@@H](C(=O)NCC(=O)NCCc2cccnc2)NC(=O)C(C)(C)NC(=O)[C@H](Cc2ccc3ccccc3c2)NC(=O)[C@H](Cc2ccc(OCCN(C)C)cc2)NC(=O)C2(CCOCC2)NC1=O [compound 23] ([Trp(1-Me)]K(Ac)[Thp]Y(Me2NCH2CH2)[2Nal][Aib][Lys(Me,(CH2)4NMe(CH2)5CO)]G-{NH(2-(3-pyridyl)ethyl)}; lactam N-7) | 39.2 nM | ≥ 970 µg/mL | ≥ 890 µg/mL | ≥ 880 µg/mL
CC(=O)NCCCC[C@@H]1NC(=O)[C@H](Cc2c[nH]c3c(C)cccc23)NC(=O)CCCCN(C)CCCCN(C)CCCC[C@@H](C(=O)NCC(=O)NCCc2cccnc2)NC(=O)C2(CCOCC2)NC(=O)[C@H](Cc2ccc3ccccc3c2)NC(=O)[C@H](Cc2ccc(OCCN(C)C)cc2)NC(=O)C2(CCOCC2)NC1=O [compound 48] ([Trp(7-Me)]K(Ac)[Thp]Y(Me2NCH2CH2)[2Nal][Thp][Lys(Me,(CH2)4NMe(CH2)4CO)]G-{NH(2-(3-pyridyl)ethyl)}; lactam N-7) | 10.4 nM | ≥ 980 µg/mL | 850 µg/mL (≈ 550 µM) | 810 µg/mL (≈ 524 µM)
